Assay [1] deals with H. pylori HsrA. Kind of assay: Fluorescence-based thermal shift assay (HTS of Maybridge HitFinder library) for HsrA ligands. In kind it is binding, Helicobacter pylori. As to conditions: 10 µM HsrA, 250 μM compound, vs DMSO controls. The procedure: High-throughput screening (HTS) of the Maybridge HitFinder^TM chemical library for H. pylori HsrA ligands was assessed by a fluorescence-based thermal shift assay, according to previously described procedures. Briefly, a reaction mixture containing 50 mM Tris-HCl (pH 8), 150 mM NaCl, 10% glycerol, 5 mM DTT, SYPRO® Orange ready-to-use fluorescent stain (Thermo Fisher Scientific) at a final concentration of 10 ×, and 10 µM HsrA was freshly prepared. Next, 90 μL was dispensed in every well of V-shape 96-well plates ABgene^TM Thermo-Fast^TM 96 (Thermo Fisher Scientific). Wells of columns 1 and 12 received 10 μL of DMSO (vehicle) and were used as the reference controls. The rest of the wells (columns 2 to 11) received 2.5 μL of four different compounds from the HitFinder library (250 μM as final concentration each). The unfolding curve corresponding to each well was registered from 25 °C to 75 °C in 1 °C steps using an Mx3005P™ qPCR System (Agilent Technologies, Inc., Santa Clara, CA, USA), and analyzed by Origin 7.0 (OriginLab, Northampton, MA, USA) using a homemade script that determined the midpoint temperature of unfolding (Tm).

Assay [2] has as its target T1, C. jejuni response regulator CosR (Campylobacter jejuni, UniProt Q0PBF4). Put plainly: EMSA: inhibition of in vitro DNA binding activity of CosR to promoter PsodB. In kind it is biochemical. Particulars: 700 nM CosR, ligand 0.1-2 mM. How it is done: The DNA binding activities of recombinant HsrA and CosR were assessed in vitro by electrophoretic mobility shift assays (EMSAs). A 300-bp promoter region of the H. pylori 26695 operon porGDAB was used as the target sequence of HsrA in all EMSA experiments. Likewise, a 420-bp sequence of the C. jejuni sodB promoter (ATCC 33560) was used as the target DNA of CosR [90]. The oligonucleotides used for the synthesis of these promoter regions are described in Supplementary Table S4. Response regulators HsrA (6 μM) or CosR (700 nM) were mixed with 120 ng of their target promoters in a reaction buffer of 10 mM bis-Tris (pH 7.5), 40 mM KCl, 100 mg/L BSA, 1 mM DTT, and 5% glycerol. For the in vitro inhibition analyses, mixtures of target DNA and response regulator were exposed to 2, 1, 0.5, and 0.1 mM of each compound of interest, incubated at room temperature for 20 min, and then separated on a 6% non-denaturing electrophoresis. DMSO instead of inhibitors was included as a vehicle control, while an internal sequence of the Anabaena sp. pkn22 gene was used as the non-specific competitor in all assays. For DNA-protein binding visualization, gels were stained with the SYBR Safe DNA gel stain (Invitrogen) and analyzed with a Gel Doc 2000 Image Analyzer (Bio-Rad).
(A gel shift assay detects complexes by their altered migration in electrophoresis.)

Assay [3] deals with T1, C. jejuni response regulator CosR. Put plainly: Isothermal titration calorimetry (ITC) with CosR. Type of assay: binding. How it is done: Molecular interactions of the selected ligands with proteins HsrA or CosR were studied by isothermal titration calorimetry (ITC), as previously described. Titrations were assessed in a high-sensitivity MicroCal Auto-iTC200 calorimeter (Malvern Panalytical, Malvern, UK). Experiments were carried out at 25 °C in freshly prepared buffer containing 50 mM Tris-HCl [pH 8], 150 mM NaCl, 10% glycerol, and 1% DMSO. A 20 µM solution of protein was located in the calorimetric cell. Then, a sequence of 19 injections of 2 µL volume each with a 200 µM solution of the corresponding ligand was programmed with a time spacing of 150 s, a stirring speed of 750 rpm, and a reference power of 10 µcal/s in the sample cell. Thermodynamic properties such as binding stoichiometry, dissociation constants, and binding enthalpies were calculated by nonlinear least-squares regression data analysis using Origin 7.0 software.
In general terms: In ITC the heat of successive injections is recorded.

T1 sequence (Q0PBF4 entry or part of it): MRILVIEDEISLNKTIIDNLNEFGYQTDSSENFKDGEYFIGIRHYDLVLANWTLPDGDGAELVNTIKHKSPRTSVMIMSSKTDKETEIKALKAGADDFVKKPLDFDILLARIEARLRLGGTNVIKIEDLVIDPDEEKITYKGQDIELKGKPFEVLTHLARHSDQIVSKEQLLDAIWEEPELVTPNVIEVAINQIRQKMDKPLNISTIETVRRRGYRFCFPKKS

As to `N#C/C(=C\C=C\c1ccccc1)c1nc2ccccc2[nH]1` [Ligand XII], the “ΔTm (upshift of midpoint temperature of unfolding of HsrA)” value in assay [1] amounted to 9 °C.

As for `CSc1cccc(NC(=S)NCCNc2c([N+](=O)[O-])cc(C(F)(F)F)cc2[N+](=O)[O-])c1` [Ligand IV], the “ΔTm (upshift of midpoint temperature of unfolding of HsrA)” value in assay [1] was 16 °C.

What is called Kd is the concentration at which binding is half-saturated. Consider `NC(=NOC(=O)Nc1ccc(Cl)cc1)c1csc([N+](=O)[O-])c1` [Ligand V, N′-{[(4-chloroanilino)carbonyl]}oxy-5-nitrothiophene-3-carboximidamide], for which the “Inhibition of in vitro DNA binding activity of CosR (EMSA)” value in assay [2] is “noticeable inhibition”. Besides, the ΔG in assay [3] (absolute error 0.1) is reported as -6.2 kcal/mol. Besides, in assay [3] (absolute error 0.4), the ΔH is recorded as -0.9 kcal/mol. For the same compound, in assay [3] (relative error 15%), binding was characterised by a dissociation constant (Kd) of 26 µM.

(Values after publication PMC11432330, “Novel Drug-like HsrA Inhibitors Exhibit Potent Narrow-Spectrum Antimicrobial Activities against Helicobacter pylori” (International Journal of Molecular Sciences, 2024).)
